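In this assay, cells in 96-well plates receive the compound at five concentrations for 48 hours. Endpoints are linearly interpolated between the surrounding concentrations. GI50 = concentration required for 50% inhibition of growth.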 Activity calls are given as the source filed them. No stated cut-off is given here; in the data, active = GI50 up to about 1.1 µM and inactive = higher. Non-standard residues stand in square brackets, D forms with d. Residues, ends and D or L forms follow the SMILES beside them. *: point of attachment. Bn2Val = CC(C)[C@@H](C(=O)*)N(Cc1ccccc1)Cc1ccccc1; NH(4-Cl-benzyl) = Clc1ccc(CN*)cc1; NMeV = CN[C@H](C(=O)O)C(C)C; dNMeA = CN[C@H](C)C(=O)O
What was measured:
Test in all cases: NCI tumour cell line growth inhibition, 48 h
SR = system: SR
MDA-N = system: MDA-N
KM12 = system: KM12
SF-268 = system: SF-268
DU-145 = system: DU-145
SK-MEL-28 = system: SK-MEL-28
CAKI-1 = system: CAKI-1
LOX IMVI = system: LOX IMVI
HL-60 = system: HL-60
HT-29 = system: HT-29
K562 = system: K562
SK-OV-3 = system: SK-OV-3
OVCAR-5 = system: OVCAR-5
UACC-257 = system: UACC-257
Malme-3M = system: Malme-3M
A549 = system: A549
SN12C = system: SN12C
MDA-MB-231 = system: MDA-MB-231

SMILES | GI50 (SR) | GI50 (MDA-N) | GI50 (KM12) | GI50 (SF-268) | GI50 (DU-145) | GI50 (SK-MEL-28) | GI50 (CAKI-1) | GI50 (LOX IMVI) | GI50 (HL-60) | GI50 (HT-29) | GI50 (K562) | GI50 (SK-OV-3) | GI50 (OVCAR-5) | GI50 (UACC-257) | GI50 (Malme-3M) | GI50 (A549) | GI50 (SN12C) | GI50 (MDA-MB-231)
C=C(Cl)c1c(OC)cccc1OCc1ccccc1 | 26.8 µM (inactive) | 42 µM (inactive) | 54.2 µM (inactive) | > 100 µM (inactive) | > 100 µM (inactive) | > 100 µM (inactive) | > 100 µM (inactive) | 69.7 µM (inactive) | 29.2 µM (inactive) | 34.5 µM (inactive) | 48.2 µM (inactive) | > 100 µM (inactive) | > 100 µM (inactive) | 20 µM (inactive) | > 100 µM (inactive) | > 100 µM (inactive) | > 100 µM (inactive) | 64.7 µM (inactive)
O=C(O)Cc1ccc(Oc2nc3ccccc3nc2-c2cccs2)cc1 | 38.8 µM (inactive) | 82.2 µM (inactive) | 44.2 µM (inactive) | 66.4 µM (inactive) | 81.7 µM (inactive) | 60.4 µM (inactive) | 55.7 µM (inactive) | 40.6 µM (inactive) | 55.8 µM (inactive) | 42.6 µM (inactive) | 99.3 µM (inactive) | > 100 µM (inactive) | 62.7 µM (inactive) | > 100 µM (inactive) | > 100 µM (inactive) | 46.7 µM (inactive) | 84.9 µM (inactive) | > 100 µM (inactive)
Oc1ccc(Cl)cc1Cc1cc(Cl)cc(Cc2cc(Cl)ccc2O)c1O | 2.82 µM (inactive) | 2.66 µM (inactive) | 2.64 µM (inactive) | 2.69 µM (inactive) | 2.96 µM (inactive) | 3.24 µM (inactive) | 2.48 µM (inactive) | 2.9 µM (inactive) | 2.3 µM (inactive) | 3 µM (inactive) | 1.63 µM (inactive) | 2.43 µM (inactive) | 3.17 µM (inactive) | 2.01 µM (inactive) | 1.95 µM (inactive) | 2.83 µM (inactive) | 2.4 µM (inactive) | 2.53 µM (inactive)
CO[C@]12CC(=O)C3(C(C[C@H]4CC5CC=C6C[C@@H](OC(C)=O)CC[C@]6(OC(C)=O)C5C[C@@]43C)C1)C1C[C@H]3[C@@H]4CC=C5C[C@@H](OC(C)=O)CC[C@]5(OC(C)=O)[C@H]4CC[C@]3(C)C12 (stereo partly drawn) | 5.66 µM (inactive) | 13.1 µM (inactive) | 11.4 µM (inactive) | 56.9 µM (inactive) | 16.5 µM (inactive) | 30 µM (inactive) | 19.2 µM (inactive) | 18.9 µM (inactive) | 14.9 µM (inactive) | 16.1 µM (inactive) | 8.85 µM (inactive) | 62.1 µM (inactive) | 21.7 µM (inactive) | 23.6 µM (inactive) | 18.5 µM (inactive) | 21.9 µM (inactive) | 14.6 µM (inactive) | 14.8 µM (inactive)
COC(=O)N1CC[C@@H]2CCC=C(c3cccc4c3OCO4)[C@@H]21 | > 100 µM (inactive) | > 100 µM (inactive) | > 100 µM (inactive) | > 100 µM (inactive) | > 100 µM (inactive) | > 100 µM (inactive) | > 100 µM (inactive) | > 100 µM (inactive) | 30.9 µM (inactive) | 79.6 µM (inactive) | 42.8 µM (inactive) | > 100 µM (inactive) | > 100 µM (inactive) | 78.5 µM (inactive) | > 100 µM (inactive) | > 100 µM (inactive) | > 100 µM (inactive) | > 100 µM (inactive)
NC(=O)ON=C1CCN(Cc2ccccc2)CC1 | > 100 µM (inactive) | > 100 µM (inactive) | > 100 µM (inactive) | > 100 µM (inactive) | > 100 µM (inactive) | > 100 µM (inactive) | > 100 µM (inactive) | > 100 µM (inactive) | > 100 µM (inactive) | > 100 µM (inactive) | > 100 µM (inactive) | > 100 µM (inactive) | > 100 µM (inactive) | > 100 µM (inactive) | > 100 µM (inactive) | > 100 µM (inactive) | > 100 µM (inactive) | > 100 µM (inactive)
COC1=CC(=O)c2c(c(COP(=O)(N(C)CCBr)N(C)CCBr)cn2C)C1=O | < 0.01 µM (active) | 0.109 µM (active) | 0.219 µM (active) | 0.0431 µM (active) | 0.0134 µM (active) | 0.141 µM (active) | < 0.01 µM (active) | 0.194 µM (active) | < 0.01 µM (active) | < 0.0219 µM (active) | 0.0398 µM (active) | 0.121 µM (active) | 0.148 µM (active) | 0.258 µM (active) | 0.0811 µM (active) | < 0.01 µM (active) | < 0.01 µM (active) | 0.296 µM (active)
CCOC(=O)NC(Nc1cc(Cl)ccc1OC)(C(F)(F)F)C(F)(F)F | 74.3 µM (inactive) | > 100 µM (inactive) | > 100 µM (inactive) | > 100 µM (inactive) | > 100 µM (inactive) | > 100 µM (inactive) | > 100 µM (inactive) | > 100 µM (inactive) | > 100 µM (inactive) | > 100 µM (inactive) | > 100 µM (inactive) | > 100 µM (inactive) | > 100 µM (inactive) | > 100 µM (inactive) | > 100 µM (inactive) | > 100 µM (inactive) | > 100 µM (inactive) | > 100 µM (inactive)
Cc1sc2nc(-c3ccc([N+](=O)[O-])cc3)c(/C=N/N=C(N)N)n2c1C | 0.217 µM (active) | 0.373 µM (active) | 0.301 µM (active) | 1.65 µM (inactive) | 1.27 µM (inactive) | 0.361 µM (active) | 2.07 µM (inactive) | 0.398 µM (active) | 1.1 µM (active) | 0.432 µM (active) | 0.202 µM (active) | 1.7 µM (inactive) | 1.36 µM (inactive) | 1.46 µM (inactive) | 1.17 µM (inactive) | 1.45 µM (inactive) | 1.33 µM (inactive) | 0.28 µM (active)
Cc1nn(C(=O)c2ccccc2O)c2c1C(c1ccco1)SC(=N)N2 (stereo not drawn) | 4.9 µM (inactive) | 7.4 µM (inactive) | 5.47 µM (inactive) | 4.09 µM (inactive) | 3.63 µM (inactive) | 6.41 µM (inactive) | 3.48 µM (inactive) | 3.73 µM (inactive) | 4.94 µM (inactive) | > 10 µM (inactive) | 2.93 µM (inactive) | 3.3 µM (inactive) | > 10 µM (inactive) | 9.89 µM (inactive) | > 10 µM (inactive) | 4.43 µM (inactive) | 5.93 µM (inactive) | 5.79 µM (inactive)
CC(C)[C@H](NC(=O)[C@H](C(C)C)N(Cc1ccccc1)Cc1ccccc1)C(=O)N(C)[C@H](C(=O)N1CCC[C@H]1C(=O)N(C)[C@H](C)C(=O)NCc1ccc(Cl)cc1)C(C)C (Bn2Val-V[NMeV]P[dNMeA]-{NH(4-Cl-benzyl)}) | 3.85 µM (inactive) | 4.43 µM (inactive) | 3.38 µM (inactive) | 2.98 µM (inactive) | 4.11 µM (inactive) | 4.98 µM (inactive) | 5.94 µM (inactive) | 1.85 µM (inactive) | 1.77 µM (inactive) | 1.74 µM (inactive) | 4.04 µM (inactive) | 16.2 µM (inactive) | 4.9 µM (inactive) | 4.78 µM (inactive) | 10.3 µM (inactive) | 4.04 µM (inactive) | 2.58 µM (inactive) | 2.65 µM (inactive)

— ChEMBL document CHEMBL1201862, “PubChem BioAssay data set” (2004)
